Measurements taken from ChEMBL document CHEMBL5463725, “Data for DCP probe BAY-277” (2023).

Assays:
[1] = target: Mitogen-activated protein kinase kinase kinase 21 (Homo sapiens) (UniProt Q5TCX8); test: Inhibition of MLK4(h) at 10.0 µM in the Eurofins Kinase panel; details: Compound concentration 10.0 uM
[2] = target: Serine/threonine-protein kinase Sgk1 (Homo sapiens) (UniProt O00141); test: Inhibition of SGK(h) at 10.0 µM in the Eurofins Kinase panel; details: Compound concentration 10.0 uM
[3] = target: MAP kinase-activated protein kinase 2 (Homo sapiens) (UniProt P49137); test: Inhibition of MAPKAP-K2(h) at 10.0 µM in the Eurofins Kinase panel; details: Compound concentration 10.0 uM
[4] = target: SNF-related serine/threonine-protein kinase (Homo sapiens) (UniProt Q9NRH2); test: Inhibition of SNRK(h) at 10.0 µM in the Eurofins Kinase panel; details: Compound concentration 10.0 uM
[5] = target: PAS domain-containing serine/threonine-protein kinase (Homo sapiens) (UniProt Q96RG2); test: Inhibition of PASK(h) at 10.0 µM in the Eurofins Kinase panel; details: Compound concentration 10.0 uM
[6] = target: Sodium- and chloride-dependent GABA transporter 1 (Rattus norvegicus) (UniProt P23978); test: (§1) Inhibition of Transporter, GABA at 10.0 µM in the Eurofins Panlabs Safety Screen; details: Compound concentration 10.0 uM
[7] = target: Tyrosine-protein kinase Mer (Homo sapiens) (UniProt Q12866); test: Inhibition of Mer(h) at 10.0 µM in the Eurofins Kinase panel; details: Compound concentration 10.0 uM
[8] = target: Interferon-induced, double-stranded RNA-activated protein kinase (Homo sapiens) (UniProt P19525); test: Inhibition of PKR(h) at 10.0 µM in the Eurofins Kinase panel; details: Compound concentration 10.0 uM
[9] = target: Casein kinase II subunit alpha' (Homo sapiens) (UniProt P19784); test: Inhibition of CK2alpha2(h) at 10.0 µM in the Eurofins Kinase panel; details: Compound concentration 10.0 uM
[10] = target: Serine/threonine-protein kinase DCLK2 (Homo sapiens) (UniProt Q8N568); test: Inhibition of DCAMKL2(h) at 10.0 µM in the Eurofins Kinase panel; details: Compound concentration 10.0 uM
[11] = target: Serine/threonine-protein kinase 26 (Homo sapiens) (UniProt Q9P289); test: Inhibition of MST4(h) at 10.0 µM in the Eurofins Kinase panel; details: Compound concentration 10.0 uM
[12] = target: Glutamate NMDA receptor (Rattus norvegicus) (UniProt P35439+Q00959+Q00960+Q00961+Q62645+Q8VHN2+Q9R1M7); test: Inhibition of Glutamate, NMDA, Glycine at 10.0 µM in the Eurofins Panlabs Safety Screen; assay type: protein-complex assay; details: Compound concentration 10.0 uM
[13] = target: RAC-beta serine/threonine-protein kinase (Homo sapiens) (UniProt P31751); test: Inhibition of PKBbeta(h) at 10.0 µM in the Eurofins Kinase panel; details: Compound concentration 10.0 uM
[14] = target: Serine/threonine-protein kinase Nek1 (Homo sapiens) (UniProt Q96PY6); test: Inhibition of NEK1(h) at 10.0 µM in the Eurofins Kinase panel; details: Compound concentration 10.0 uM
[15] = target: Ribosomal protein S6 kinase beta-1 (Homo sapiens) (UniProt P23443); test: Inhibition of p70S6K(h) at 10.0 µM in the Eurofins Kinase panel; details: Compound concentration 10.0 uM
[16] = target: Protein kinase C gamma type (Homo sapiens) (UniProt P05129); test: Inhibition of PKCgamma(h) at 10.0 µM in the Eurofins Kinase panel; details: Compound concentration 10.0 uM
[17] = target: Dual specificity protein kinase CLK4 (Homo sapiens) (UniProt Q9HAZ1); test: Inhibition of CLK4(h) at 10.0 µM in the Eurofins Kinase panel; details: Compound concentration 10.0 uM
[18] = target: STE20/SPS1-related proline-alanine-rich protein kinase (Homo sapiens) (UniProt Q9UEW8); test: Inhibition of STK39(h) at 10.0 µM in the Eurofins Kinase panel; details: Compound concentration 10.0 uM
[19] = target: Testis-specific serine/threonine-protein kinase 4 (Homo sapiens) (UniProt Q6SA08); test: Inhibition of TSSK4(h) at 10.0 µM in the Eurofins Kinase panel; details: Compound concentration 10.0 uM
[20] = target: [Pyruvate dehydrogenase (acetyl-transferring)] kinase isozyme 2, mitochondrial (Homo sapiens) (UniProt Q15119); test: Inhibition of PDHK2(h) at 10.0 µM in the Eurofins Kinase panel; details: Compound concentration 10.0 uM
[21] = target: TRAF2 and NCK-interacting protein kinase (Homo sapiens) (UniProt Q9UKE5); test: Inhibition of TNIK(h) at 10.0 µM in the Eurofins Kinase panel; details: Compound concentration 10.0 uM
[22] = target: Serine/threonine-protein kinase 38-like (Homo sapiens) (UniProt Q9Y2H1); test: Inhibition of NDR2(h) at 10.0 µM in the Eurofins Kinase panel; details: Compound concentration 10.0 uM
[23] = target: Serine/threonine-protein kinase 38 (Homo sapiens) (UniProt Q15208); test: Inhibition of NDR1(h) at 10.0 µM in the Eurofins Kinase panel; details: Compound concentration 10.0 uM
[24] = target: Serine/threonine-protein kinase pim-3 (Homo sapiens) (UniProt Q86V86); test: Inhibition of Pim-3(h) at 10.0 µM in the Eurofins Kinase panel; details: Compound concentration 10.0 uM
[25] = target: Beta-1 adrenergic receptor (Homo sapiens) (UniProt P08588); details: Compound concentration 10.0 uM
[26] = target: Calcium/calmodulin-dependent protein kinase type 1G (Homo sapiens) (UniProt Q96NX5); test: Inhibition of CaMKIgamma(h) at 10.0 µM in the Eurofins Kinase panel; details: Compound concentration 10.0 uM
[27] = target: Methionine aminopeptidase 2 (Homo sapiens, UniProt P50579); test: Degradation in HT1080 cells (CE) Dmax (Capillary electrophoresis (CE)); assay type: functional, cell-based; details: HT-1080
[28] = target: Calcium/calmodulin-dependent protein kinase type 1D (Homo sapiens) (UniProt Q8IU85); test: Inhibition of CaMKIdelta(h) at 10.0 µM in the Eurofins Kinase panel; details: Compound concentration 10.0 uM
[29] = target: GABA transporter (Rattus norvegicus) (UniProt P31647+P23978+P31646+P48056); test: as §1; assay type: protein assay; details: Compound concentration 10.0 uM
[30] = target: eIF-2-alpha kinase GCN2 (Homo sapiens) (UniProt Q9P2K8); test: Inhibition of GCN2(h) at 10.0 µM in the Eurofins Kinase panel; details: Compound concentration 10.0 uM
[31] = target: Serine/threonine-protein kinase tousled-like 1 (Homo sapiens) (UniProt Q9UKI8); test: Inhibition of TLK1(h) at 10.0 µM in the Eurofins Kinase panel; details: Compound concentration 10.0 uM
[32] = target: Muscarinic acetylcholine receptor M5 (Homo sapiens, UniProt P08912); test: GPCRScan assay: inhibition of M5; design: radioligand conc. used [nm] 0.2 – 1.0, parental cells stable CHO
[33] = target: Megakaryocyte-associated tyrosine-protein kinase (Homo sapiens) (UniProt P42679); test: Inhibition of MATK(h) at 10.0 µM in the Eurofins Kinase panel; details: Compound concentration 10.0 uM
[34] = target: Mitogen-activated protein kinase kinase kinase kinase 2 MAP4K2 (Homo sapiens) (UniProt Q12851); test: Inhibition of GCK at 10.0 µM in the Eurofins Kinase panel; details: Compound concentration 10.0 uM
[35] = target: Activin receptor type-1-like (Homo sapiens) (UniProt P37023); test: Inhibition of ALK1(h) at 10.0 µM in the Eurofins Kinase panel; details: Compound concentration 10.0 uM
[36] = target: Wee1-like protein kinase 2 (Homo sapiens) (UniProt P0C1S8); test: Inhibition of Wee1B(h) at 10.0 µM in the Eurofins Kinase panel; details: Compound concentration 10.0 uM
[37] = target: Cannabinoid receptor 1 (Homo sapiens) (UniProt P21554); test: Inhibition of Cannabinoid CB1 at 10.0 µM in the Eurofins Panlabs Safety Screen; details: Compound concentration 10.0 uM

Sequence of Muscarinic acetylcholine receptor M5 (P08912 whole entry): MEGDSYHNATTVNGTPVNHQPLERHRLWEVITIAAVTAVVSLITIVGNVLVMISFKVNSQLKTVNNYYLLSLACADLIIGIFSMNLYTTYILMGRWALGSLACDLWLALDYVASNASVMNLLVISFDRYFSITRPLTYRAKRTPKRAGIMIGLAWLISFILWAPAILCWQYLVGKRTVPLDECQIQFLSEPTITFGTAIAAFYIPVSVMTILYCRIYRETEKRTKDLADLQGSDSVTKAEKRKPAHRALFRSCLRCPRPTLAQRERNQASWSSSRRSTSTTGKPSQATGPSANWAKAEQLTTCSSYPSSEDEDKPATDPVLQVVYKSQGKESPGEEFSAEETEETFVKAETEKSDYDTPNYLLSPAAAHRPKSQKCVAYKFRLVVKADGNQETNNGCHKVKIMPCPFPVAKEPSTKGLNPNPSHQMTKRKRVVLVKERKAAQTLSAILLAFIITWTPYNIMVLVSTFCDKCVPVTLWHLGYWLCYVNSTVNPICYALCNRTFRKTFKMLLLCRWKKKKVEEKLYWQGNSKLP
Sequence of Beta-1 adrenergic receptor (Homo sapiens) (P08588 whole entry, looked up): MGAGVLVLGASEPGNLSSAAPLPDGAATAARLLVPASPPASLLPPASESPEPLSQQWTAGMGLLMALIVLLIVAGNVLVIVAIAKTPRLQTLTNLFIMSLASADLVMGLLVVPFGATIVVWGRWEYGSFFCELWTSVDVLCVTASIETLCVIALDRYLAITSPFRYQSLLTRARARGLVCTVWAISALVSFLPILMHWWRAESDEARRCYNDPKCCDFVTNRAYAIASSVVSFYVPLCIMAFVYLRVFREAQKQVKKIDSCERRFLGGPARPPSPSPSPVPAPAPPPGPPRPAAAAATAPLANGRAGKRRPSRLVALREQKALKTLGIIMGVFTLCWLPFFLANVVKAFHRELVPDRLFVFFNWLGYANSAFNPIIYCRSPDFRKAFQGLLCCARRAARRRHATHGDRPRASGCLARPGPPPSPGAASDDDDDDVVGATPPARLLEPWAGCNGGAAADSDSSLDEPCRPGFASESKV
Sequence of Serine/threonine-protein kinase 38-like (Homo sapiens) (Q9Y2H1 2-464 limits assumed): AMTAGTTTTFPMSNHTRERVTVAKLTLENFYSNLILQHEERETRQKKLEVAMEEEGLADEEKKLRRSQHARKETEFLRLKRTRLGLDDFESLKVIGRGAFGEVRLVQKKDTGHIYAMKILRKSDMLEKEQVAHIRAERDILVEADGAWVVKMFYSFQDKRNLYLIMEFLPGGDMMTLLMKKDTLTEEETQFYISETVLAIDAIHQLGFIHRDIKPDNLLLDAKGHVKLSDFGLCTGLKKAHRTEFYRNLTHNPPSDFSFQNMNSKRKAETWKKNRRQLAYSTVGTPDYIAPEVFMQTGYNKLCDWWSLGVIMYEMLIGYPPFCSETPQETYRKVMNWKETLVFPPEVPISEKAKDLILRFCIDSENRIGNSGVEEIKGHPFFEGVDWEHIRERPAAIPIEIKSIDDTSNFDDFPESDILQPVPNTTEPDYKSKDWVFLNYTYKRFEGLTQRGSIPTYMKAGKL
Sequence of Serine/threonine-protein kinase tousled-like 1 (Homo sapiens) (Q9UKI8 whole entry): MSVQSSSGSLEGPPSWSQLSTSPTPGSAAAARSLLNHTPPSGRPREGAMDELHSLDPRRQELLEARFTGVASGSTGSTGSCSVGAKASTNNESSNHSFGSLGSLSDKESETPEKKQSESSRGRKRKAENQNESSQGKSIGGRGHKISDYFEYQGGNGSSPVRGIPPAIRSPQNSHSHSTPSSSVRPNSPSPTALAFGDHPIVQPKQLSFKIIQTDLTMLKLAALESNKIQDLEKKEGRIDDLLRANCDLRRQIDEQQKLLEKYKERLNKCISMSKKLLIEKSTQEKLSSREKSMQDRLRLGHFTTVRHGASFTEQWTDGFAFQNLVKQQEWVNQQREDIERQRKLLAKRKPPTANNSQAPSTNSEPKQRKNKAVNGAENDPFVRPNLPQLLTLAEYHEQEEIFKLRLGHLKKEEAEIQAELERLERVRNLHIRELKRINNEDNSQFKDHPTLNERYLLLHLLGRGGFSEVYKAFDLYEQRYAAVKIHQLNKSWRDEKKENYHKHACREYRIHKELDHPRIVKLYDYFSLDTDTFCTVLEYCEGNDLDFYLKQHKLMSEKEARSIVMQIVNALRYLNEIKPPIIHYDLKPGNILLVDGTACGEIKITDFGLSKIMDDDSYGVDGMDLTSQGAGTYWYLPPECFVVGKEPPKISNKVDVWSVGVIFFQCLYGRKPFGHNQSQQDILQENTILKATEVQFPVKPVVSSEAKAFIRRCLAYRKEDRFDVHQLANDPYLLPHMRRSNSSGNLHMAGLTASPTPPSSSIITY
Sequence of RAC-beta serine/threonine-protein kinase (Homo sapiens) (P31751 whole entry): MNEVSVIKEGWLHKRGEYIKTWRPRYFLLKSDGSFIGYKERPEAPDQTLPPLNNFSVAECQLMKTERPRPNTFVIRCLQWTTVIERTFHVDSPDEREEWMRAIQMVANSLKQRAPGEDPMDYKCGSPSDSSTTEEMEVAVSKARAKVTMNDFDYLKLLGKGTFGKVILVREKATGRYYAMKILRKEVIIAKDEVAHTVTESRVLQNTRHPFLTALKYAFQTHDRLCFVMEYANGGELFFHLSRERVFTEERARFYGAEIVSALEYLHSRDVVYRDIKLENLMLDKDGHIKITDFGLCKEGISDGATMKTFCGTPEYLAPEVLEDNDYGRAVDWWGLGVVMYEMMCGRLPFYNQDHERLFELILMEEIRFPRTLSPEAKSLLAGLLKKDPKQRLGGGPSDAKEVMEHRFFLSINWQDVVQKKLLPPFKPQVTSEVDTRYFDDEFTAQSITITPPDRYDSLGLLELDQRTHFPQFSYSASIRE
Sequence of Mitogen-activated protein kinase kinase kinase 21 (Homo sapiens) (Q5TCX8 whole entry): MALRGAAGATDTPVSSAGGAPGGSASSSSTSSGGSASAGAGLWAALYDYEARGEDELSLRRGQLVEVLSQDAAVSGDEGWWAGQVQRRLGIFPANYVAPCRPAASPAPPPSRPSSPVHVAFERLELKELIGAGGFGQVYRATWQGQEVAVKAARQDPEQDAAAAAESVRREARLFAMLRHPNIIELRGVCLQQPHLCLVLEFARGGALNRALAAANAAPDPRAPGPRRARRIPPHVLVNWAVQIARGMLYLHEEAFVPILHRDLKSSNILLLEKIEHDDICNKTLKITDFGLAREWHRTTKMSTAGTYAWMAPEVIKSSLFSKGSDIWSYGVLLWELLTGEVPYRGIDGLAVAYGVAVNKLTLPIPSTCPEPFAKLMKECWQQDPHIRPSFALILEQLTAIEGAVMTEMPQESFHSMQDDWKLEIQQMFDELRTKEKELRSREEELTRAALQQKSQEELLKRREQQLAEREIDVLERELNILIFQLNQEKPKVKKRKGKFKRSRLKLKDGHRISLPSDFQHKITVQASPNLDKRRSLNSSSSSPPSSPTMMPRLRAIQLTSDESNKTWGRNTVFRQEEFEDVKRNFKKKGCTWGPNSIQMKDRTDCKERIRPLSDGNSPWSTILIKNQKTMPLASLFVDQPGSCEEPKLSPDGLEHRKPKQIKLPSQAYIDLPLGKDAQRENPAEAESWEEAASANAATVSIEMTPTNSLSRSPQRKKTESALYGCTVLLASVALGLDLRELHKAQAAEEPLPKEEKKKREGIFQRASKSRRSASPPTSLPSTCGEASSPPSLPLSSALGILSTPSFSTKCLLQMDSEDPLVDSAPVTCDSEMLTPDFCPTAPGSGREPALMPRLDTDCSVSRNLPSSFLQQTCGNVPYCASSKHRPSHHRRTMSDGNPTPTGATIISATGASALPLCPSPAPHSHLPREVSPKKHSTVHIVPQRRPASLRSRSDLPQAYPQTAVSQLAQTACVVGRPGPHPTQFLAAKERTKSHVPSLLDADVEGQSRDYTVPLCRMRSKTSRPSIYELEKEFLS
Sequence of PAS domain-containing serine/threonine-protein kinase (Homo sapiens) (Q96RG2 whole entry, the tested form may be a part): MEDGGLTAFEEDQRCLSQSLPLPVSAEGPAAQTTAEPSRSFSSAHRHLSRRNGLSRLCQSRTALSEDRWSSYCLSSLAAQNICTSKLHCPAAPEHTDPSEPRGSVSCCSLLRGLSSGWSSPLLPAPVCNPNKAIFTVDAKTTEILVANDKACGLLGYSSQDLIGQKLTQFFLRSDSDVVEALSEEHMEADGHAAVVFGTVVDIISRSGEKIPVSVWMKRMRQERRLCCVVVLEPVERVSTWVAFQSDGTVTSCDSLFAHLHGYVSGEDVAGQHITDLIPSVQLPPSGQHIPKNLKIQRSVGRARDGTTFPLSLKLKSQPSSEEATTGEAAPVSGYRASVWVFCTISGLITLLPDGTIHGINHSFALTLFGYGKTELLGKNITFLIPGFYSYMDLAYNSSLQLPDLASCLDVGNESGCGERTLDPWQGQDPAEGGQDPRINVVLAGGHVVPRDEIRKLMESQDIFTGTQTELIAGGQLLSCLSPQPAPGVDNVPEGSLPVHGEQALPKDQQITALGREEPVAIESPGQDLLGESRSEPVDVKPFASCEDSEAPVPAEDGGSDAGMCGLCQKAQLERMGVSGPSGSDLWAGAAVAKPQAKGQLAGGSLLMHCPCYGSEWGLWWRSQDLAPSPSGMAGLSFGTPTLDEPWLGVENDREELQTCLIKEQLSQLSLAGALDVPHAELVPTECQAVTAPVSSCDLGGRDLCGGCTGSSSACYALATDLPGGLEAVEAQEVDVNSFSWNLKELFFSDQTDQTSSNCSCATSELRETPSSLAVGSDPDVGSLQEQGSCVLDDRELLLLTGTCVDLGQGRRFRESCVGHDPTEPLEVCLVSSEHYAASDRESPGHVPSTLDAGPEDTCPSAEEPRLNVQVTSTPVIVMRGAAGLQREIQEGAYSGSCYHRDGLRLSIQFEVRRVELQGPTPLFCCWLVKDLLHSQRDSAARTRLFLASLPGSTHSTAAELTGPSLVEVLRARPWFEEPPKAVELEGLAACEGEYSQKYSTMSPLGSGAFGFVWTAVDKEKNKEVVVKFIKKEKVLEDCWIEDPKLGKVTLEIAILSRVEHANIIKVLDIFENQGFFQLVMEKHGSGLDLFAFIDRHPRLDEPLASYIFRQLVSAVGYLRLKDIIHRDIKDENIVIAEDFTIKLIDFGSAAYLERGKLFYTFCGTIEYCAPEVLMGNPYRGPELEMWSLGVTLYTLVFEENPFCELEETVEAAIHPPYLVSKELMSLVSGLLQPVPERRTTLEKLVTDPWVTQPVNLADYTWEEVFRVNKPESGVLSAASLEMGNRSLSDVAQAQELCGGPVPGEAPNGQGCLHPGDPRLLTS

## O=C1NCCCC1N1Cc2cc(C3CCN(C(=O)CCCCCN4CCC(c5ccc(Oc6nn7cnnc7c7c6CCCC7)cc5)CC4)CC3)ccc2C1=O (stereo not drawn)
[1]
  inhibition: 10.7%
[2]
  inhibition: 10.8%
[3]
  inhibition: 16.6%
[4]
  inhibition: 10.6%
[5]
  inhibition: 23.9%
[6]
  inhibition: 8%
[7]
  inhibition: 17.9%
[8]
  inhibition: 10.3%
[9]
  inhibition: 10.9%
[10]
  inhibition: 12%
[11]
  inhibition: 10.1%
[12]
  inhibition: -6%
[13]
  inhibition: 14.1%
[14]
  inhibition: 11.4%
[15]
  inhibition: 10.2%
[16]
  inhibition: 10.9%
[17]
  inhibition: 10.8%
[18]
  inhibition: 11.5%
[19]
  inhibition: 10.8%
[20]
  inhibition: 18.6%
[21]
  inhibition: 12.5%
[22]
  inhibition: 14.4%
[23]
  inhibition: 11.2%

## O=C1CCC(N2Cc3cc(C4CCN(C(=O)CCCCCN5CCC(c6ccc(Oc7nn8cnnc8c8c7CCCC8)cc6)CC5)CC4)ccc3C2=O)C(=O)N1 (stereo not drawn)
[24]
  inhibition: 10.3%
[25]
  inhibition: 0.81%
[26]
  inhibition: 15.7%
[27]
  Dmax: 88.5%
[28]
  inhibition: 11.4%
[29]
  inhibition: 5%
[30]
  inhibition: 17.2%
[31]
  inhibition: 12.3%
[32]; read-out: Ki
  Ki: 568 nM
[32]; read-out: pKi (converted)
  Ki: 562 nM
[33]
  inhibition: 19.7%
[34]
  inhibition: 11.3%
[35]
  inhibition: 11.5%
[36]
  inhibition: 10.3%
[37]
  inhibition: 1%
